Data on 11 molecules can be found in publication PMC4201332 (ACS Chemical Biology, 2014).

One data set has as its target hmGlu1 (Homo sapiens, UniProt Q13255). As to the kind of experiment: Calcium mobilization mGlu1 PAM potency assay. It counts as cell-based. The conditions noted are these: for Emax: T-REx-293, read-out: hmGlu1 % Glu Max (±SEM). A general note: Calcium flux is commonly read through the fluorescence of an indicator in the cells.
The next data set has as its target hmGlu4 (Homo sapiens, UniProt Q14833). Nature of the data set: Calcium mobilization mGlu4 assay. It counts as cell-based.
For data set [1], the target named is T1, mGlu1 WT receptor (Homo sapiens, UniProt Q13255). The class given is cell-based. The conditions noted are these: 10 μM PAM.
T1 sequence (Q13255 19-1194): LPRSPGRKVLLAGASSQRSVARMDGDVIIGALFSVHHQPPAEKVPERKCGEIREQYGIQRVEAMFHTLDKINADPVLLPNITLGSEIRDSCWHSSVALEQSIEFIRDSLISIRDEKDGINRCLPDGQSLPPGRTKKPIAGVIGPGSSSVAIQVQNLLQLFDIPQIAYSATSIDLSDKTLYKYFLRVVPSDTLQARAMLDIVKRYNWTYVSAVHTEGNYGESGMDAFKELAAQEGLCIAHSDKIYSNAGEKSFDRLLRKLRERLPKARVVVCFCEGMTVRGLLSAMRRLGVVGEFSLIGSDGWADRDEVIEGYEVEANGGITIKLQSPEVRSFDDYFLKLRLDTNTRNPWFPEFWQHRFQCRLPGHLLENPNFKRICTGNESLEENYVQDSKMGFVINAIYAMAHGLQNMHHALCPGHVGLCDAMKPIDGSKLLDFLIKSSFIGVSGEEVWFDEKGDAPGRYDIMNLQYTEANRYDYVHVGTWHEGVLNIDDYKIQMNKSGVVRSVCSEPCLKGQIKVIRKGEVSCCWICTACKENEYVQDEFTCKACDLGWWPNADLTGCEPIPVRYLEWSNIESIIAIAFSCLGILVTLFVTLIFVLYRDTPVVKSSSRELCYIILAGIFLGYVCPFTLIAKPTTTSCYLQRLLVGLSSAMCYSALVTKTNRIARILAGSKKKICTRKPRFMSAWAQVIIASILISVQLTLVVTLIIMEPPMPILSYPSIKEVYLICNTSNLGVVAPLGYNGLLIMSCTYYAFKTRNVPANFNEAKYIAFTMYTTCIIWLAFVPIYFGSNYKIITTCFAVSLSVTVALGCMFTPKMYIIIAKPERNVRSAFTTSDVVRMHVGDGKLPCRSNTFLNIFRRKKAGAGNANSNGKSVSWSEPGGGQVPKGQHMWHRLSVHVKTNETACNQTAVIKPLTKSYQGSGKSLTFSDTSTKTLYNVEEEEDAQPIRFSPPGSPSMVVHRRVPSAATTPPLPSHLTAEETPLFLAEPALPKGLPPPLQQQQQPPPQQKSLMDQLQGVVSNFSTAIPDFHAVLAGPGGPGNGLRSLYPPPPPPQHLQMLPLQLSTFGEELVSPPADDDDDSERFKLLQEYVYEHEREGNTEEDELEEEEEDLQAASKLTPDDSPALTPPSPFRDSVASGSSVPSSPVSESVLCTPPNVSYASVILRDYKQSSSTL
Data set [2] has as its target T1, mGlu1 WT receptor. It counts as cell-based.
In data set [3] the test system is amphetamine-induced hyperlocomotion in WT rats. Nature of the data set: Amphetamine-induced hyperlocomotion. It counts as in vivo, rat. The conditions noted are these: doses up to 100 mg/kg i.p.
For the next data set, the target named is CYP2C9 (Homo sapiens, UniProt P11712). Nature of the data set: Cytochrome P450 inhibition. The class given is in vitro ADME.
CYP2C9, sequence (P11712 whole entry): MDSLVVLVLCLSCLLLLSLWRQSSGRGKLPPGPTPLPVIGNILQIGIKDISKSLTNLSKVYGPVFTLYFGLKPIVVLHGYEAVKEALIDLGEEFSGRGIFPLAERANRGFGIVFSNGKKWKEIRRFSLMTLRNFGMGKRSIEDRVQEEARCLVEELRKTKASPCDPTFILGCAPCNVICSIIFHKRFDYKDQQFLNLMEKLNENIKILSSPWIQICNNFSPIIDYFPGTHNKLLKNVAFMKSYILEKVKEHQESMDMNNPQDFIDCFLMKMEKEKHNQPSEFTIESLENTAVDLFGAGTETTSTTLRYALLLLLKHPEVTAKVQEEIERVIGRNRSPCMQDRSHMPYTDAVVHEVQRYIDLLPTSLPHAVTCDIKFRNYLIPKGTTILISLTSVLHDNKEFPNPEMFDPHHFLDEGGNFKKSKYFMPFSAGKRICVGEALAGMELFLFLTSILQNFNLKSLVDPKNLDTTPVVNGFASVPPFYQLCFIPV
Another data set concerns the target CYP3A4 (Homo sapiens, UniProt P08684). Nature of the data set: Cytochrome P450 inhibition. It counts as in vitro ADME.
The target of the next data set is CYP2D6 (Homo sapiens, UniProt P10635). Nature of the data set: Cytochrome P450 inhibition. The class given is in vitro ADME.
CYP2D6, sequence (P10635 whole entry): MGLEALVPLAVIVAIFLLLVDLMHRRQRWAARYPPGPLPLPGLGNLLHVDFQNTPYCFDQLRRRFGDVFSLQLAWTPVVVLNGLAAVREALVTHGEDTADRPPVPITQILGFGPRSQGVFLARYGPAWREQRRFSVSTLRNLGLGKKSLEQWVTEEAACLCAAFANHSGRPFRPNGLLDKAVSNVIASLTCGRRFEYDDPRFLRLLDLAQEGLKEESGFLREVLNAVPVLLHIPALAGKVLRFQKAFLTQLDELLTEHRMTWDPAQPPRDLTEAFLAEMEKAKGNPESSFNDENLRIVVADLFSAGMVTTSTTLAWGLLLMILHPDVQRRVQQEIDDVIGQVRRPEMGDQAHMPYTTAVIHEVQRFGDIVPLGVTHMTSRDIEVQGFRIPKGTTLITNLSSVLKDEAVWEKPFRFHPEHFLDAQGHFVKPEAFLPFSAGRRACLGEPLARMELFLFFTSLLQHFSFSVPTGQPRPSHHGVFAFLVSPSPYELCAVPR
A further data set concerns the target T2, CYP1A2 (Homo sapiens, UniProt P05177).
T2 sequence (P05177 1-516): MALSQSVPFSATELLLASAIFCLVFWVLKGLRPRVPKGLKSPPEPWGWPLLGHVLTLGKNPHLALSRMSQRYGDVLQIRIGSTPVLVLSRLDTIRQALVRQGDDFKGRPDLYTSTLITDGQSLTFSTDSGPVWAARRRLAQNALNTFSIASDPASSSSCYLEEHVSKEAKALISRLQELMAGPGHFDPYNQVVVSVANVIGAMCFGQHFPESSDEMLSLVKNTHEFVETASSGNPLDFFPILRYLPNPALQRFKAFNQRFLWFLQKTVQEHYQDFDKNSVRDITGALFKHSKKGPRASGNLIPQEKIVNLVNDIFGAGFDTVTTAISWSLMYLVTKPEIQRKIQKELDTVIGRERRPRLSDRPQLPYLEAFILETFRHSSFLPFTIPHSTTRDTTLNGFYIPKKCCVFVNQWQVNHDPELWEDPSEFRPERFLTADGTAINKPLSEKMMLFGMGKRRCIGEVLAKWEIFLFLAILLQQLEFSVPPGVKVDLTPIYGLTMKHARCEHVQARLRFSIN
As to the kind of experiment: Cytochrome P450 inhibition. The class given is in vitro ADME.

The next data set deals with mGlu1 K563N mutant (Homo sapiens, UniProt Q13255, K563N). As to the kind of experiment: Calcium mobilization in stable Sz mutant cell line. The class given is cell-based. The conditions noted are these: agonist DHPG.
mGlu1 K563N mutant, sequence (Q13255 19-1194 K563N): as the sequence (Q13255 19-1194) above, with K545N counted along it
A further data set deals with mGlu1 Sz mutants. As to the kind of experiment: Calcium mobilization in stable cell lines expressing schizophrenia. It counts as cell-based, human.
The target of a further data set is mGlu1 P1015A mutant (Homo sapiens, UniProt Q13255, P1015A). As to the kind of experiment: Calcium mobilization in stable Sz mutant cell line. It counts as cell-based. The conditions noted are these: agonist DHPG.
mGlu1 P1015A mutant, sequence (Q13255 19-1194 P1015A): as the sequence (Q13255 19-1194) above, with P997A counted along it
Where [4] appears, read: hmGlu1 EC50, calcium mobilization, average of n = 3 performed in triplicate.

Where only a bound is given, the exact number is not on record here.

hmGlu1, sequence (Q13255 19-1194): as the sequence (Q13255 19-1194) above
hmGlu4, sequence (Q14833 33-912): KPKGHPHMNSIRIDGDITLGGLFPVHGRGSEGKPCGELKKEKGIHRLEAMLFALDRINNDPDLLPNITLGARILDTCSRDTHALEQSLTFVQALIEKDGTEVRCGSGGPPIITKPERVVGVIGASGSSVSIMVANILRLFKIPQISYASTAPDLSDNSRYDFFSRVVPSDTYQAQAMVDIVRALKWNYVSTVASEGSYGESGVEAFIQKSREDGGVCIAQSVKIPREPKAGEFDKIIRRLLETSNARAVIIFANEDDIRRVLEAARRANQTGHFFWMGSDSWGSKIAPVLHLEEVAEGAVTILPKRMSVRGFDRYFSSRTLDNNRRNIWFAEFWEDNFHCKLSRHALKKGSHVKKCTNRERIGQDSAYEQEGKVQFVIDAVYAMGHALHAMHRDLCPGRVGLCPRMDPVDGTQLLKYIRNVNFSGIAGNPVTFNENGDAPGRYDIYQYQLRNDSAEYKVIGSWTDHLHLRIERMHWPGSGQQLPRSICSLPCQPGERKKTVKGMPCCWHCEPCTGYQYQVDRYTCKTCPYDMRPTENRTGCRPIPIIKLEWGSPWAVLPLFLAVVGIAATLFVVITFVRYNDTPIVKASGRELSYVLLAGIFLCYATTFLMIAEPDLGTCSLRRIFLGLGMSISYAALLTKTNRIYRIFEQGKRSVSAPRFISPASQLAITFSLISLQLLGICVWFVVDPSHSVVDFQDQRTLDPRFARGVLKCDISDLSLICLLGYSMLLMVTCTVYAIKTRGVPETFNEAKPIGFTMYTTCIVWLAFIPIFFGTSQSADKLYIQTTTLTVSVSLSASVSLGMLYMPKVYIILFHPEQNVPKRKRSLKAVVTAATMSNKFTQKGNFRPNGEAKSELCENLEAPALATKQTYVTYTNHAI
CYP3A4, sequence (P08684 whole entry): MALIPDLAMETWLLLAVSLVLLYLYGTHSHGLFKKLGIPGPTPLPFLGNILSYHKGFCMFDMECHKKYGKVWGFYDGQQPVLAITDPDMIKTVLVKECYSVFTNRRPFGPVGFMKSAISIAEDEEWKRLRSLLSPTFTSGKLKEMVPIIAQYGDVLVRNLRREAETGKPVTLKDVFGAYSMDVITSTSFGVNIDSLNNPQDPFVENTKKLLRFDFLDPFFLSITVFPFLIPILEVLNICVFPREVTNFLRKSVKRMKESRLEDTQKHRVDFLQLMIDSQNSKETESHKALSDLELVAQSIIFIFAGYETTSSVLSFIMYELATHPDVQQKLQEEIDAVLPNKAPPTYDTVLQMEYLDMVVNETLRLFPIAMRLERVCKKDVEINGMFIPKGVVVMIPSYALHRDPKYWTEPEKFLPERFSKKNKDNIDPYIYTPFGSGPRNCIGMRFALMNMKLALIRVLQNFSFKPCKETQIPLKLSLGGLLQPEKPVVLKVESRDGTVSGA

Take `Cc1cccnc1C(=O)Nc1ccc(N2C(=O)c3cccc(C)c3C2=O)c(Cl)c1` [23a]: the Emax on hmGlu1 came out at 101 ± 7%. On hmGlu1 (setting [4]), the EC50 (commonly the concentration giving half of the maximal effect) was determined as 0.176 µM.
Taken in the same sequence, the figures for `Cc1ccc2c(c1)C(=O)N(c1ccc(NC(=O)c3ncccc3C)cc1Cl)C2=O` [23b] were 130 ± 26% and > 10 µM.
As for `Cc1cccnc1C(=O)Nc1ccc(N2C(=O)c3cccc(Cl)c3C2=O)c(Cl)c1` [23c], at hmGlu1 (calcium mobilization), the “hmGlu1 % Glu Max (±SEM)” value is listed as 126 ± 25%. Further, the EC50 on hmGlu1 (setting [4]) worked out at 0.372 µM; on hmGlu1 (hmGlu1 EC50, text and Figure 6), 0.37 µM; on hmGlu4, 0.199 µM. At hmGlu4 (calcium mobilization), the “hmGlu4 % Glu Max” value is listed as 55%. The “left-ward fold shift of the glutamate concentration response curve” value at mGlu1 WT receptor [1] is listed as ~3 fold. In addition, on mGlu1 WT receptor [2] (10 μM PAM, WT mGlu1), the “leftward fold shift of the DHPG concentration-response curve” value came to 3.4 fold. Moreover, the “effect on amphetamine-induced hyperlocomotion” value in data set [3] is on record as “behaved similarly”.
With `Cc1cccnc1C(=O)Nc1ccc(N2C(=O)c3cccc(F)c3C2=O)c(Cl)c1` [23e], the Emax on hmGlu1 worked out at 90 ± 15%. Moreover, the EC50 on hmGlu1 (setting [4]) was found to be 0.418 µM.
`Cc1cccnc1C(=O)Nc1ccc(N2C(=O)c3ccc(F)cc3C2=O)c(Cl)c1` [23f]: the EC50 on hmGlu1 (setting [4]) was > 10 µM.
On to `Cc1cccc2c1C(=O)N(c1ccc(NC(=O)c3ncccc3Cl)cc1Cl)C2=O` [24a], for which, on hmGlu1, the Emax was 110 ± 21%. The EC50 on hmGlu1 (setting [4]) is 0.177 µM.
Turning to `Cc1ccc2c(c1)C(=O)N(c1ccc(NC(=O)c3ncccc3Cl)cc1Cl)C2=O` [24b], the Emax at hmGlu1 stood at 82 ± 4%. At hmGlu1 (setting [4]), the EC50 came out at 0.832 µM.
As to `O=C(Nc1ccc(N2C(=O)c3cccc(Cl)c3C2=O)c(Cl)c1)c1ncccc1Cl` [24c, N-(3-chloro-4-(4-chloro-1,3-dioxoisoindolin-2-yl)phenyl)-3-chloropicolinamide], the “hmGlu1 % Glu Max (±SEM)” value on hmGlu1 (calcium mobilization) amounted to 110 ± 15%. Moreover, the EC50 at hmGlu1 (setting [4]) was 0.391 µM; at hmGlu1 (hmGlu1 pEC50 (±SEM), calcium mobilization), 0.389 µM. The 50% inhibitory concentration (IC50) against CYP2C9, against CYP3A4, at CYP2D6 and against CYP1A2 was > 30 µM in each case. In addition, the “effect on amphetamine-induced hyperlocomotion” value in [3] is given as “no effect up to the highest dose”.
As for `O=C(Nc1ccc(N2C(=O)c3cccc(F)c3C2=O)c(Cl)c1)c1ncccc1Cl` [24e], the Emax at hmGlu1 turned out to be 117 ± 9%. Besides, the EC50 on hmGlu1 (setting [4]) is 1.14 µM.
For the molecule `N[C@H](C(=O)O)c1cc(O)cc(O)c1` [DHPG, (S)-3,5-dihydroxyphenylglycine], the “calcium response, % of WT” value at mGlu1 K563N mutant is on record as ~110%. The “calcium response, % of WT response” value in the data set on mGlu1 Sz mutants (agonist DHPG, majority of mutants, typically) is 55–75%; at mGlu1 P1015A mutant it was ~90%. The molecule also came in with a 50% effective concentration (EC50) on mGlu1 WT receptor [2] of 2.5 µM.
`N[C@@H](CCC(=O)O)C(=O)O` [glutamate, L-glutamic acid]: the “calcium response, % of the WT response” value with mGlu1 Sz mutants (agonist glutamate, mutants typically, except K563N and P1015A) is 45–65%.
